# According to PubChem BioAssay (NCI):
#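 Following 48 hours of exposure in 96-well plates, responses at five concentrations were used to interpolate endpoints linearly. TGI is the concentration that stops growth completely.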
# How the values were obtained:
# Assay in all cases: NCI anticancer screen, dose series, 48 h
# [1] = tested on: UACC-257 melanoma
# [2] = tested on: SW-620 colon
# [3] = tested on: SK-MEL-28 melanoma
# [4] = tested on: SR leukemia
# [5] = tested on: COLO 205 colon
# [6] = tested on: BT-549 breast
# [7] = tested on: SNB-75 CNS
# [8] = tested on: NCI-H460 lung
# [9] = tested on: HCC-2998 colon
# [10] = tested on: DU-145 prostate
# [11] = tested on: RXF 393 renal
# [12] = tested on: SF-295 CNS
# [13] = tested on: T-47D breast
# [14] = tested on: OVCAR-5 ovarian
# [15] = tested on: MALME-3M melanoma
# [16] = tested on: RPMI-8226 leukemia
# [17] = tested on: ACHN renal
# [18] = tested on: HOP-62 NSCLC
# [19] = tested on: A549 NSCLC
# [20] = tested on: SK-OV-3 ovarian
SMILES,TGI [1] [µM],TGI [2] [µM],TGI [3] [µM],TGI [4] [µM],TGI [5] [µM],TGI [6] [µM],TGI [7] [µM],TGI [8] [µM],TGI [9] [µM],TGI [10] [µM],TGI [11] [µM],TGI [12] [µM],TGI [13] [µM],TGI [14] [µM],TGI [15] [µM],TGI [16] [µM],TGI [17] [µM],TGI [18] [µM],TGI [19] [µM],TGI [20] [µM]
C=CCOc1ccc(C2(c3ccc(OCC=C)cc3)C(=O)Nc3ccccc32)cc1,> 10,> 10,> 10,> 10,> 10,> 10,> 10,> 10,> 10,> 10,> 10,> 10,> 10,> 10,> 10,> 10,> 10,> 10,> 10,> 10
COc1ccc(C2C3=C(COC3=O)OC(C)(C)Oc3cc4c(cc32)OCO4)cc1 (stereo not given),> 100,> 100,> 100,> 100,48.5,89.3,23,> 92.6,96.9,> 100,79,> 100,> 87.4,> 100,> 100,> 100,> 100,> 100,> 100,> 100
CCN(CC)CCOc1ccc(N2Cc3ccccc3C2=O)cc1,> 10,> 10,> 10,> 10,> 10,> 10,> 10,> 10,> 10,> 10,> 10,> 10,> 10,> 10,> 10,> 10,> 10,> 10,> 10,> 10
C[n+]1c2ccccc2c(C(=O)NC(CCCN=C(N)N)C(=O)O)c2ccccc21 (stereo not given),> 100,> 100,> 100,> 100,> 100,> 100,> 100,> 100,> 100,> 100,,> 100,> 100,> 100,> 100,> 100,> 100,> 100,> 100,> 100
O=C1N[C@H]2C(=O)c3c(Cl)sc(Cl)c3[C@H]2O1,23,5.4,23.2,6.71,21.3,54.5,30.4,39.4,3.6,23.7,9.31,32.1,29.2,37.7,33,59.1,21,34.5,40,28.9
CCCCC1C(=O)N(c2ccc(S(=O)(=O)Nc3ccccn3)cc2)N(c2ccc(O)c(C(=O)O)c2)C1=O (stereo not given),> 100,> 100,> 100,> 100,> 100,> 100,> 100,> 100,> 100,> 100,> 100,> 100,> 100,> 100,> 100,> 100,> 100,,> 100,> 100
COc1cccc(CCn2c(N)c(C(=O)O)c3ccc([N+](=O)[O-])cc3c2=O)c1,,> 100,> 100,> 100,45.9,87.4,90.3,> 100,> 100,> 100,> 100,> 100,> 100,> 100,> 100,> 100,> 100,> 100,> 100,> 100
FC(F)(F)c1ccc2c(c1)nc(Cc1ccc(Cl)c(Cl)c1)n2CC1CCCN2CCCCC12 (stereo not given),41,> 100,53.8,74.6,33.5,85.2,> 100,52.4,22.5,> 100,> 100,51.7,> 100,46.2,28.6,> 100,> 100,> 100,44.2,90
c1cc2[nH]snc2c2cncc12,> 100,> 100,> 100,> 100,> 100,> 100,> 100,> 100,> 100,> 100,> 100,> 100,> 100,> 100,> 100,> 100,> 100,> 100,> 100,> 100
O=C1N(CN2CCOCC2)CN(CN2CCOCC2)C(=O)N1Cc1ccc(-c2ccc(CN3C(=O)N(CN4CCOCC4)CN(CN4CCOCC4)C3=O)cc2)cc1,37.9,30.7,36.2,18.9,> 41.9,39.1,49.6,54.5,28.3,40.1,27.3,65.6,> 100,39.8,34.6,,99.3,> 57.8,57.6,> 100
COc1ccc2c(c1)CCC(CN1CCN(CCOC(c3ccc(F)cc3)c3ccc(F)cc3)CC1)C2O (stereo not given),28.1,> 100,30,> 100,20.2,27.5,32.9,44.9,9.33,34.8,26.3,34.5,39,28.6,28,35.4,19.8,34.5,32.7,31.5
COc1cc(OC)cc(-n2c(N)c(-c3nc4ccccc4s3)c3ccc([N+](=O)[O-])cc3c2=O)c1,> 100,> 100,> 100,89.7,> 100,> 100,> 100,> 100,> 100,> 100,,> 100,> 100,,> 100,> 100,41.7,,,> 100
CN(CCCCN1CCCC1)CCCCN(C)C(=O)Cc1ccc(Cl)c(Cl)c1,6.22,38.4,3.88,14.3,27.4,36.7,32.8,30.6,18.5,72,25.9,38,40.7,41.2,34.4,23.9,57.1,34.8,31.2,47.2
CCOC(=O)NC(Nc1ccc(F)c(F)c1)(C(=O)OCC)C(F)(F)F (stereo not given),> 100,> 100,> 100,> 100,> 100,> 100,> 100,> 100,> 100,> 100,> 100,> 100,> 100,> 100,> 100,> 100,> 100,> 100,> 100,> 100
COc1cc(/C=C/C=C2\CCC/C(=C\C=C\c3ccc(O)c(OC)c3)C2=O)ccc1O,31.4,51.1,30.2,19.7,71.5,60.5,> 100,57.7,> 100,> 100,41.7,27,36.7,79.5,44.8,28.5,39,52.7,26.8,> 100
O=c1oc2ccccc2cc1-c1csc(Nc2cc(Cl)cc(Cl)c2)n1,> 100,50.9,59,> 100,> 100,> 100,11.8,> 100,> 100,> 100,14.6,> 44.5,> 100,> 100,64.8,> 100,4.38,17.9,16.9,> 49.5
N#Cc1nc(Sc2cnsn2)c(Sc2cnsn2)nc1C#N,39,> 22.5,53.6,> 100,19,39.2,48.8,> 60.9,33.5,35.5,12.3,> 58.8,> 27.6,38.8,33.3,> 100,16,42.4,> 77.4,32.1
CCOC(=O)c1c(C)noc1/N=N/N(CCO)CCO,86.5,> 100,> 100,66.1,70.1,> 100,46.1,> 100,78.3,> 100,50.3,> 100,39.7,> 100,> 100,,> 100,> 100,> 100,> 100
COCOc1cc(OC)c(Br)cc1C/C(=N/O)C(=O)OC,> 100,> 100,> 100,> 100,> 100,> 100,59.7,> 100,> 100,> 100,> 100,> 100,70.3,> 100,> 100,,> 100,> 100,> 100,> 100
